# Patent publication US20180360898A1, “USE OF CRANBERRY DERIVED PHENOLIC COMPOUNDS AS ANTIBIOTIC SYNERGIZING AGENT AGAINST PATHOGENIC BACTERIA” (THE ROYAL INSTITUTION FOR THE ADVANCEMENT OF …, priority 2015, published 2018)
# Columns and labels:
# P. aeruginosa PAO1 = experiment: Minimum Inhibitory Concentration (MIC); assay type: cell-based, Pseudomonas aeruginosa; settings: alone, MHB-II broth
# Protocol: (§1) Pure stock cultures were maintained at −80° C. in 30% (v/v) frozen glycerol solution. Starter cultures were prepared by streaking frozen cultures onto LB agar (LB broth: tryptone 10 g/L, yeast extract 5 g/L and NaCl 5 g/L, supplemented with 1.5 w/v % agar (Fisher Scientific, Canada)). After overnight incubation at 37° C., a single colony was inoculated into 10 mL of LB broth and the culture was incubated at 37° C. on an orbital shaker at 150 rpm for time lengths specific to each experiment. LB broth was used for bacterial culture in all experiments unless otherwise specified.
# (§2) Minimum Inhibitory Concentration (MIC) was determined by preparing two-fold serial dilutions of each cPACs fraction and antibiotic in Mueller Hinton broth adjusted with Ca^2+ and Mg^2+ (MHB-II, Oxoid, Fisher Scientific, Canada). […] Bacterial growth was assessed by (i) monitoring the optical density of the cell suspension in each well at 600 nm (OD600 nm), and (ii) the resazurin microtitre plate assay. In the resazurin microtitre plate assay, each well of a microtitre plate was supplemented with 20 μM resazurin, incubated in dark for 20 min at room temperature, followed by fluorescence measurements at ex/em 570/590 nm using a TECAN Infinite M200 Pro microplate reader (Tecan Group Ltd., Switzerland). […]
# E. coli CFT073 = experiment: Minimum Inhibitory Concentration (MIC); assay type: cell-based, Escherichia coli; settings: alone, MHB-II broth
# Protocol: as §1, §2
substance,measurement,setting,value
gentamicin,MIC,P. aeruginosa PAO1,2 µg/mL
same,MIC,E. coli CFT073,2 µg/mL
